What all share (format): cell-based
One test relates to SC-islet cell clusters. In words: Cell cluster size, morphology, homogeneity, re-aggregation and stability (microscopy). To be noted: day 6 of stage 6 (S6d6), fatty acid supplementation. How it is done: (§1) The effect of supplementing the modified S5 medium used in stage 6 with one or more saturated fatty acid of unsaturated fatty acid was analyzed. The fatty acids analyzed included palmitate (saturated fatty acid), oleic acid (unsaturated fatty acid), linoleic acid (unsaturated fatty acid), and palmitoleic acid (unsaturated fatty acid) (see protocol is outlined in FIG. 20). The fatty acid free HSA+fatty acid were stirred for 1 hour at 37° C.
A select number of metabolites were included in the DS6 medium, including: glutamate, acetate, β hydroxybutarate, L-caratine, taurine, formate, and biotin.

The test system of test [1] is SC-β cells (Nkx6.1/Isl1 double positive cells). Kind of test: Percent SC-β cells (Nkx6.1/Isl1 double positive) by FACS. To be noted: for SC-β cell percent in stage 6: added to the culture medium during days 1-10 of stage 6, JJKK 048 1 μM, KML 29 10 μM, NF 1819 10 μM. The procedure: (§2) In this instance cryopreserved stage 5 individual cells were thawed and cultured in a modified stage 5 (S5) medium during the first 4 days of Stage 6 (S6d1-d4) […], with subsequent culture of the cells in Stage 6 (S6) medium (see experimental outline in FIG. 2).
as §1
MGLL (monoacylglycerol lipase) is a serine hydrolase that catalyzes the conversion of monoacylglycerides to free fatty acids and glycerol. The effect of three highly specific MGLL inhibitors (JJKK 048 (1 μM), KML 29 (10 μM), NF 1819 (10 μM)) on SC-β cell production was analyzed.
Stage 5 insulin-positive endocrine cell clusters were differentiated from stem cells as described herein. The insulin-positive endocrine cell clusters were dissociated such that the majority of the dissociated cells were now individual cells, and the cells were then cryopreserved, and thawed. The thawed individual cells were then differentiated into β cell clusters through a stage 6 differentiation. […] The base medium of MDCB 131 with 0.05% HSA was used for days 5-11 of stage 6 (FIG. 30, FIG. 31).
For orientation: A flow cytometer gives signals particle by particle.

Test [2] has as its system thawed cryopreserved stage 5 cells. In words: Cell recovery / viable cell number in stage 6 culture after thaw of cryopreserved stage 5 cells. The following applies: inclusion in DS3 media.
Experimental: The insulin-positive endocrine progenitor cell clusters were dissociated such that the majority of the dissociated cells were individual cells, and the cells were cryopreserved, and thawed. The thawed cells are then differentiated into β cell clusters through a stage 6 differentiation. The stage 6 culture medium comprises DMEM F12 base with 1% human serum albumin (HSA), and optionally 1.5 μM zinc (“DS2 medium”). […] Thus, whether alteration of the S6 medium could improve recovery was analyzed.
In this instance cryopreserved stage 5 individual cells were thawed and cultured in a modified stage 5 (S5) medium during the first 4 days of Stage 6 (S6d1-d4) (approximately 72 hours), with subsequent culture of the cells in Stage 6 (S6) medium (see experimental outline in FIG. 2).
Several factor drop out experiments were conducted to identify the contribution of each factor.
A further test relates to SC-β cells. Kind of test: Number / recovery / yield of SC-β cells in stage 6. To be noted: day 10 of stage 6; with 0.5% HSA. How it is done:
as §2, §1

In a further test the test system is SC-β cells / SC-islets. In words: Glucose stimulated insulin secretion (GSIS), human C-peptide per 1000 cells. The following applies: day 10 of stage 6 (S6d10); addition post day 4 of stage 6.

Experimental for SC-β cells / SC-islets: FIG. 18A is a bar graph showing the glucose stimulated insulin secretion (GSIS) of cells at day 12 of stage 6 (S6d12). GSIS was measured as the level of human C-peptide (pM) per 1000 cells after glucose stimulation. The cells were cultured in stage 6 (S6) medium+1% HSA for days 1-12 of stage 6.
A range of 2.8 mM and 20 mM glucose was used to stimulate GSIS (See experimental protocol FIG. 13).

As to `CCCCC/C=C\C/C=C\CCCCCCCC(=O)O` [linoleic acid], the “size of the cell clusters” value in the test with SC-islet cell clusters was “enhances the size of the cell clusters”.
On to `O=C1[C@H](c2ccc(F)cc2)[C@@H](c2ccc3c(c2)OCO3)N1C1CCN(C(=O)n2cncn2)CC1` [NF 1819], for which, in test [1], the “SC-β cell percent in stage 6” value is given as “around 50%”.
With `O=S(=O)([O-])[O-].[Zn+2]` [ZnSO4], in test [2], the “S6d4 viable cell number” value is “greatly improves S6d4 viable cell number”.
`CCCCCCCCCCCCCCCC(=O)O` [palmitate, palmitic acid]: the “size of the cell clusters” value with SC-islet cell clusters is recorded as “enhances the size of the cell clusters”. The “total number of SC-β cells recovered” value in the test on SC-β cells is “enhanced the total number of SC-β cells recovered”. Besides, in test [1] (fatty acid added to the modified S5 medium, days 1-4 of stage 6), the “percent of SC-β cells (Nkx6.1/Isl1 double positive cells) recovered” value is listed as “improved”. Further, the GSIS result in the test with SC-β cells / SC-islets was “improves GSIS”.
With `O=C(N1CCC(C(c2ccc3c(c2)OCO3)c2ccc3c(c2)OCO3)CC1)n1cncn1` [JJKK 048], the “SC-β cell percent in stage 6” value in test [1] is listed as “around 50%”.
In the case of `O=C(OC(C(F)(F)F)C(F)(F)F)N1CCC(C(O)(c2ccc3c(c2)OCO3)c2ccc3c(c2)OCO3)CC1` [KML 29], the “SC-β cell percent in stage 6” value in test [1] was “around 50%”.

The values are drawn from US20260000735A1, “ENHANCED DIFFERENTIATION OF BETA CELLS” (Vertex Pharmaceuticals Incorporated, priority 2019, published 2026).
